Measured values taken from US20240148821A1, “PHARMACEUTICAL USE OF CYCLIC PEPTIDE COMPOUND” (CHUGAI SEIYAKU KABUSHIKI KAISHA, priority 2021, published 2024).
Numbered stars: 1 amine (or outer) side, 2 acyl side, 3 side chain; on linkers, the order of the positions; unused ones are H or OH. Bridge positions count the residues as written; N and C are the ends. Square brackets hold non-standard residues; d marks the D form. Peptide text beside a SMILES is read from it. * marks the point of attachment. hPhe(3,5-F2-4-CF3) = N[C@@H](CCc1cc(F)c(C(F)(F)F)c(F)c1)C(=O)O; hPhe(3-Cl-4-CF3) = N[C@@H](CCc1ccc(C(F)(F)F)c(Cl)c1)C(=O)O; hPhe(3-F,4-CF3) = N[C@@H](CCc1ccc(C(F)(F)F)c(F)c1)C(=O)O; NEtPhe(4-CF3) = CCN[C@@H](Cc1ccc(C(F)(F)F)cc1)C(=O)O; NMePhe(4-CF3) = CN[C@@H](Cc1ccc(C(F)(F)F)cc1)C(=O)O; NMeAbu(4,4,4-F3) = CN[C@@H](CC(F)(F)F)C(=O)O; NMePhe(4-Cl) = CN[C@@H](Cc1ccc(Cl)cc1)C(=O)O; NMePhe(4-Me) = CN[C@@H](Cc1ccc(C)cc1)C(=O)O; NMedβ3hAla = C[C@H](CC(=O)[*:2])N(C)[*:1]; NMeAla(cPent) = CN[C@@H](CC1CCCC1)C(=O)O; NMeGly(cPent) = CN[C@H](C(=O)O)C1CCCC1; NMeAla(cPr) = CN[C@@H](CC1CC1)C(=O)O; NMeCha = CN[C@@H](CC1CCCCC1)C(=O)O; Hyp = O=C(O)[C@@H]1C[C@@H](O)CN1; NMeChg = CN[C@H](C(=O)O)C1CCCCC1; NMeI = CC[C@H](C)[C@H](NC)C(=O)O; NMeD = CN[C@@H](CC(=O)O)C(=O)O; NMeL = CN[C@@H](CC(C)C)C(=O)O; NMeV = CN[C@H](C(=O)O)C(C)C; hSer = N[C@@H](CCO)C(=O)O; Morpholide = C1CN(*)CCO1; NMeA = CN[C@@H](C)C(=O)O; NMeAib = CNC(C)(C)C(=O)O; Piperidide = C1CCN(*)CC1; Pyrrolidide = C1CCN(*)C1; Ac5c = NC1(C(=O)O)CCCC1; Aze = O=C(O)[C@@H]1CCN1; NEtG = CCNCC(=O)O; Sar = CNCC(=O)O

How the values were obtained:
[1] = biological target: protein-protein interaction between Kras and SOS1 (biotin-tagged human Kras loaded with GDP, His-tagged human SOS1) (Homo sapiens (Human), UniProt P01116, G12D); assay: Protein-protein interaction inhibition between Kras and SOS1 (KrasG12D-SOS PPI) using AlphaScreen; type: biochemical; conditions: AlphaScreen; biotin-tagged human Kras loaded with GDP, His-tagged human SOS1; read-out: KRAS G12D-SOS PPI IC50;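 also: kras produced in E. coli, Ni-coupled donor beads and streptavidin acceptor beads, excitation 680 nm with emission detected at 520–620 nm via singlet oxygen transfer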
[2] = system: Human pancreatic cancer cell line AsPC-1 (G12D mutation Kras); assay: AsPC-1 cell growth inhibition (AsPC-1 CGI); type: cell-based; conditions: read-out: AsPC-1 cell growth inhibition, 50% growth inhibitory concentration (IC50 value); 96 hours, CellTiter-Glo, values classified in ranges

| Structure (SMILES) | IC50 [1] [nM] | IC50 [2] [nM] |
| --- | --- | --- |
| CCO[C@@H]1C[C@H]2C(=O)NC3(CCCC3)C(=O)N(C)[C@@H]([C@@H](C)CC)C(=O)N(C)[C@H](C)CC(=O)N(C)[C@@H](CC(C)C)C(=O)N[C@@H]([C@@H](C)CC)C(=O)N(C)[C@@H](C)C(=O)N3CC[C@H]3C(=O)N(CC)[C@@H](Cc3ccc(C(F)(F)F)cc3)C(=O)N(C)CC(=O)N[C@@H](CCc3cc(F)c(C(F)(F)F)c(F)c3)C(=O)N2C1 [Compound 374] (cyclo([Ac5c][NMeI][NMedβ3hAla][NMeL]I[NMeA][Aze][NEtPhe(4-CF3)][Sar][hPhe(3,5-F2-4-CF3)][Hyp](Et))) | 6.5 | ≤ 20 |
| CC[C@H](C)[C@@H]1NC(=O)[C@H](CC(C)C)N(C)C(=O)C[C@@H](C(=O)N(C)C)N(C)C(=O)[C@H]([C@@H](C)CC)N(C)C(=O)[C@H](C(C)C)NC(=O)[C@@H]2CCCN2C(=O)[C@H](CCc2ccc(C(F)(F)F)c(Cl)c2)NC(=O)CN(C)C(=O)[C@H](Cc2ccc(C)cc2)N(C)C(=O)[C@@H]2CCN2C(=O)[C@H](C)N(C)C1=O [Compound 784] ([NMeL]I[NMeA][Aze][NMePhe(4-Me)][Sar][hPhe(3-Cl-4-CF3)]PV[NMeI][NMeD]-NMe2; lactam N-11) | 4 | > 500 |
| CC[C@H](C)[C@@H]1NC(=O)[C@H](CC(C)C)N(C)C(=O)C[C@@H](C)N(C)C(=O)[C@H](CC(C)C)NC(=O)C(C)(C)N(C)C(=O)[C@H](CC(C)C)NC(=O)[C@H](CCc2ccc(C(F)(F)F)c(F)c2)NC(=O)CN(C)C(=O)[C@H](Cc2ccc(Cl)cc2)N(C)C(=O)CN(C)C(=O)CN(C)C1=O [Compound 797] (cyclo(I[Sar][Sar][NMePhe(4-Cl)][Sar][hPhe(3-F,4-CF3)]L[NMeAib]L[NMedβ3hAla][NMeL])) | 19 | > 500 |
| CC[C@H](C)[C@@H]1NC(=O)[C@H](CC(C)C)N(C)C(=O)C[C@@H](C(=O)N2CCCC2)N(C)C(=O)[C@H]([C@@H](C)CC)N(C)C(=O)C2(CCCC2)NC(=O)[C@@H]2CCCN2C(=O)[C@H](CCc2cc(F)c(C(F)(F)F)c(F)c2)NC(=O)CN(C)C(=O)[C@H](Cc2ccc(C(F)(F)F)cc2)N(CC)C(=O)[C@@H]2CCN2C(=O)[C@H](C)N(C)C1=O [Compound 1175] ([NMeL]I[NMeA][Aze][NEtPhe(4-CF3)][Sar][hPhe(3,5-F2-4-CF3)]P[Ac5c][NMeI][NMeD]-Pyrrolidide; lactam N-11) | 0.79 | ≤ 20 |
| CCO[C@@H]1C[C@H]2C(=O)NC3(CCCC3)C(=O)N(C)[C@@H](C3CCCC3)C(=O)N(C)[C@H](C)CC(=O)N(C)[C@@H](CC(C)C)C(=O)N[C@@H]([C@@H](C)CC)C(=O)N(C)[C@@H](C)C(=O)N3CC[C@H]3C(=O)N(C)[C@@H](Cc3ccc(C(F)(F)F)cc3)C(=O)N(C)CC(=O)N[C@@H](CCc3cc(F)c(C(F)(F)F)c(F)c3)C(=O)N2C1 [Compound 344] (cyclo([Ac5c][NMeGly(cPent)][NMedβ3hAla][NMeL]I[NMeA][Aze][NMePhe(4-CF3)][Sar][hPhe(3,5-F2-4-CF3)][Hyp](Et))) | 0.83 | ≤ 20 |
| COCC[C@@H]1NC(=O)[C@H](CC(C)C)N(C)C(=O)C[C@@H](C(=O)N2CCCCC2)N(C)C(=O)[C@H](C(C)C)N(C)C(=O)C2(CCCC2)NC(=O)[C@@H]2CCCN2C(=O)[C@H](CCc2ccc(C(F)(F)F)c(Cl)c2)NC(=O)CN(C)C(=O)[C@H](CC2CCCCC2)N(C)C(=O)[C@@H]2CCN2C(=O)[C@H](C)N(C)C1=O [Compound 17] ([NMeL][hSer](Me)[NMeA][Aze][NMeCha][Sar][hPhe(3-Cl-4-CF3)]P[Ac5c][NMeV][NMeD]-Piperidide; lactam N-11) | 30 | > 500 |
| CC[C@H](C)[C@@H]1NC(=O)[C@H](CC(C)C)N(C)C(=O)C[C@@H](C(=O)N2CCCCC2)N(C)C(=O)[C@H](C(C)C)N(C)C(=O)C2(CCCC2)NC(=O)[C@@H]2CCCN2C(=O)[C@H](CCc2ccc(C(F)(F)F)c(Cl)c2)NC(=O)CN(C)C(=O)[C@H](CC2CC2)N(C)C(=O)[C@@H]2CCN2C(=O)[C@H](C)N(C)C1=O [Compound 195] ([NMeL]I[NMeA][Aze][NMeAla(cPr)][Sar][hPhe(3-Cl-4-CF3)]P[Ac5c][NMeV][NMeD]-Piperidide; lactam N-11) | 9.5 | > 500 |
| CC[C@H](C)[C@@H]1NC(=O)[C@H](CC(C)C)N(C)C(=O)C[C@@H](C(=O)N2CCCCC2)N(C)C(=O)[C@H](CC(C)C)N(C)C(=O)C2(CCCC2)NC(=O)[C@@H]2C[C@@H](O)CN2C(=O)[C@H](CCc2ccc(C(F)(F)F)c(F)c2)NC(=O)CN(C)C(=O)[C@H](CC2CCCCC2)N(C)C(=O)CN(C)C(=O)CN(C)C1=O [Compound 875, (3S,9S,18S,21S,25S,28S,34S,36R)-9-(cyclohexylmethyl)-3-[2-[3-fluoro-4-(trifluoromethyl)phenyl]ethyl]-36-hydroxy-21,28-diisobutyl-7,10,13,16,22,26,29-heptamethyl-18-[(1S)-1-methylpropyl]-25-(piperidine-1-carbonyl)spiro[1,4,7,10,13,16,19,22,26,29,32-undecazabicyclo[32.3.0]heptatriacontane-31,1′-cyclopentane]-2,5,8,11,14,17,20,23,27,30,33-undecone] ([NMeL]I[Sar][Sar][NMeCha][Sar][hPhe(3-F,4-CF3)][Hyp][Ac5c][NMeL][NMeD]-Piperidide; lactam N-11) | 3.1 | > 500 |
| CCO[C@@H]1C[C@H]2C(=O)NC3(CCCC3)C(=O)N(C)[C@@H](C3CCCCC3)C(=O)N(C)[C@H](C(=O)N3CCCC3)CC(=O)N(C)[C@@H](CC(F)(F)F)C(=O)N[C@@H]([C@@H](C)CC)C(=O)N(C)CC(=O)N(C)CC(=O)N(C)[C@@H](Cc3ccc(C(F)(F)F)cc3)C(=O)N(C)CC(=O)N[C@@H](CCc3cc(F)c(C(F)(F)F)c(F)c3)C(=O)N2C1 [Compound 1271] ([NMeAbu(4,4,4-F3)]I[Sar][Sar][NMePhe(4-CF3)][Sar][hPhe(3,5-F2-4-CF3)][Hyp](Et)[Ac5c][NMeChg][NMeD]-Pyrrolidide; lactam N-11) | 0.49 | ≤ 20 |
| CC[C@H](C)[C@@H]1NC(=O)[C@H](CC(C)C)N(C)C(=O)C[C@@H](C(=O)N2CCCCC2)N(C)C(=O)[C@H](CC2CCCC2)N(C)C(=O)C2(CCCC2)NC(=O)[C@@H]2CCCN2C(=O)[C@H](CCc2ccc(C(F)(F)F)c(Cl)c2)NC(=O)CN(C)C(=O)[C@H](CC2CCCCC2)N(C)C(=O)[C@@H]2CCN2C(=O)[C@H](C)N(C)C1=O [Compound 1820] ([NMeL]I[NMeA][Aze][NMeCha][Sar][hPhe(3-Cl-4-CF3)]P[Ac5c][NMeAla(cPent)][NMeD]-Piperidide; lactam N-11) | 14 | > 500 |
| CC[C@H](C)[C@@H]1NC(=O)[C@H](CC(C)C)N(C)C(=O)C[C@@H](C(=O)N2CCOCC2)N(C)C(=O)[C@H]([C@@H](C)CC)N(C)C(=O)C2(CCCC2)NC(=O)[C@@H]2CCCN2C(=O)[C@H](CCc2ccc(C(F)(F)F)c(Cl)c2)NC(=O)CN(CC)C(=O)[C@H](Cc2ccc(C(F)(F)F)cc2)N(C)C(=O)[C@@H]2CCN2C(=O)[C@H](C)N(C)C1=O [Compound 1151] ([NMeL]I[NMeA][Aze][NMePhe(4-CF3)][NEtG][hPhe(3-Cl-4-CF3)]P[Ac5c][NMeI][NMeD]-Morpholide; lactam N-11) | 5.2 | ≤ 20 |
